Two molecules from US20150133460A1 (Millennium Phamaceuticals, Inc., priority 2013, published 2015) can be followed below.

SMILES strings stand for the structures.

The nature of this data set: Equilibrium aqueous solubility. The conditions noted are these: physiologically relevant pH's. The data set is classed as physicochemical.

With `COc1cc2c(N3CCN(C(=O)Nc4ccc(OC(C)C)cc4)CC3)ncnc2cc1OCCCN1CCCCC1.C[C@H](O)C(=O)O` [Form 1, 4-[6-methoxy-7-(3-piperidin-1-yl-propoxy)quinazolin-4-yl]piperazine-1-carboxylic acid(4-isopropoxyphenyl)-amide (L)-lactate (I) Form 1], the solubility in water result is listed as “greater than 450 mg/mL”.
The result for `COc1cc2c(N3CCN(C(=O)Nc4ccc(OC(C)C)cc4)CC3)ncnc2cc1OCCCN1CCCCC1.C[C@H](O)C(=O)O` [Form 4, 4-[6-methoxy-7-(3-piperidin-1-yl-propoxy)quinazolin-4-yl]piperazine-1-carboxylic acid(4-isopropoxyphenyl)-amide (L)-lactate (I) Form 4] reads “greater than 325 mg/mL”.
